Measured values as given in patent publication US20240327364A1, “THERAPEUTIC TARGETING OF GPR68 TO INDUCE FERROPTOSIS” (University Of Maryland, Baltimore, priority 2023, published 2024).
Marks after values point to notes of the source that are not given here.

Assays:
AKT3 = target: T1, AKT3 (Homo sapiens, UniProt Q9Y243); assay: KinomeScan; type: binding; settings: read-out: % Control
T1 construct: purchased DiscoveRx (Fremont, CA)

CDK3 = target: T2, CDK3 (Homo sapiens, UniProt Q00526); assay: KinomeScan; type: binding; settings: read-out: % Control
T2 construct: purchased DiscoveRx (KinomeScan service)

CDK4-cyclinD1 = target: T3, CDK4-cyclinD1 (Homo sapiens, UniProt P11802); assay: KinomeScan; type: binding; settings: read-out: % Control
T3 construct: purchased DiscoveRx (KinomeScan service)

EIF2AK1 = target: T4, EIF2AK1 (Homo sapiens, UniProt Q9BQI3); assay: KinomeScan; type: binding; settings: read-out: % Control
T4 construct: purchased DiscoveRx (Fremont, CA)
T4 sequence (Q9BQI3 whole entry): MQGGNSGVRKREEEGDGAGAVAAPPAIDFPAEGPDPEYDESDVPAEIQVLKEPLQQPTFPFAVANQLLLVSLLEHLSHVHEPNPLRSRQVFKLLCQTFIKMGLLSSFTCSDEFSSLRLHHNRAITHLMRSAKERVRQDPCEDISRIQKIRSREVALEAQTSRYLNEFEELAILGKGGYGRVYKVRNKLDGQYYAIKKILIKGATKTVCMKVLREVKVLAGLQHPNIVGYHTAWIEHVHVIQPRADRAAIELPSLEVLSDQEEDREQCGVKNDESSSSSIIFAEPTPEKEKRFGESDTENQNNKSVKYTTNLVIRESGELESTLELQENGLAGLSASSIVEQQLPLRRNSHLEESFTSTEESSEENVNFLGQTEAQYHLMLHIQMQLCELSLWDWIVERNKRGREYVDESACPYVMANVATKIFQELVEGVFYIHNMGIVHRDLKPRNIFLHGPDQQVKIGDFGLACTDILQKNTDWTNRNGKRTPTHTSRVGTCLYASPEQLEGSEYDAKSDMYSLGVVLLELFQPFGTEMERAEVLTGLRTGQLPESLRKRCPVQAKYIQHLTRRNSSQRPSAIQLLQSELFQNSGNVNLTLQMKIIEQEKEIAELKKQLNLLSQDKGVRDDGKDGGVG

FGFR4 = target: T5, FGFR4 (Homo sapiens, UniProt P22455); assay: KinomeScan; type: binding; settings: read-out: % Control
T5 construct: purchased DiscoveRx (Fremont, CA)

INSRR = target: T6, INSRR (Homo sapiens, UniProt P14616); assay: KinomeScan; type: binding; settings: read-out: % Control
T6 construct: purchased DiscoveRx (Fremont, CA)

KIT(D816V) = target: T7, KIT(D816V) (Homo sapiens, UniProt P10721, D816V); assay: KinomeScan; type: binding; settings: read-out: % Control
T7 construct: purchased DiscoveRx

LCK = target: T8, LCK (Homo sapiens, UniProt P06239); assay: KinomeScan; type: binding; settings: read-out: % Control
T8 construct: purchased DiscoveRx

LIMK1 = target: T9, LIMK1 (Homo sapiens, UniProt P53667); assay: KinomeScan; type: binding; settings: read-out: % Control
T9 construct: purchased DiscoveRx

MEK2 = target: T10, MEK2 (Homo sapiens, UniProt P36507); assay: KinomeScan; type: binding; settings: read-out: % Control
T10 construct: purchased DiscoveRx (Fremont, CA)

MYLK2 = target: T11, MYLK2 (Homo sapiens, UniProt Q9H1R3); assay: KinomeScan; type: binding; settings: read-out: % Control
T11 construct: purchased DiscoveRx

PCTK2 = target: T12, PCTK2 (Homo sapiens, UniProt Q00537); assay: KinomeScan; type: binding; settings: read-out: % Control
T12 construct: purchased DiscoveRx

PDGFRB = target: T13, PDGFRB (Homo sapiens, UniProt P09619); assay: KinomeScan; type: binding; settings: read-out: % Control
T13 construct: purchased DiscoveRx (Fremont, CA)

PIK3CA(H1047L) = target: T14, PIK3CA(H1047L) (Homo sapiens, UniProt P42336, H1047L); assay: KinomeScan; type: binding; settings: read-out: % Control
T14 construct: purchased DiscoveRx (Fremont, CA)

PIK3CA(H1047Y) = target: T15, PIK3CA(H1047Y) (Homo sapiens, UniProt P42336, H1047Y); assay: KinomeScan; type: binding; settings: read-out: % Control
T15 construct: purchased DiscoveRx (Fremont, CA)

CDC2L5 = target: T16, CDC2L5 (Homo sapiens, UniProt Q14004); assay: KinomeScan; type: binding; settings: read-out: % Control
T16 construct: purchased DiscoveRx (KinomeScan service)
Experimental: (§1) GPCR profiling assays were performed by Millipore (St. Louis, MO) using in cells expressing Gα15, a promiscuous G protein that enhances GPCR coupling to downstream Ca2+ signaling pathways. KinomeScan was conducted by DiscoveRx (Fremont, CA).
(§2) To identify the target of OGM1, the molecule was profiled for binding in a panel of 442 kinases (KinomeScan™, DiscoveRx™) and assessed its activity against 158 GPCRs in a single-point assay in Chem-1 cells that uses a promiscuous Gα15 protein to trigger calcium flux (see Table 9 and Table 10, below). […] Table 9. KinomeScan (DiscoverRx) profiling of OGM1.

PRP4 = target: T17, PRP4 (Homo sapiens, UniProt Q13523); assay: KinomeScan; type: binding; settings: read-out: % Control
T17 construct: purchased DiscoveRx (Fremont, CA)
Experimental: as §1, §2

ROS1 = target: T18, ROS1 (Homo sapiens, UniProt P08922); assay: KinomeScan; type: binding; settings: read-out: % Control
T18 construct: purchased DiscoveRx (Fremont, CA)

SGK3 = target: T19, SGK3 (Homo sapiens, UniProt Q96BR1); assay: KinomeScan; type: binding; settings: read-out: % Control
T19 construct: purchased DiscoveRx (Fremont, CA)

VRK2 = target: T20, VRK2 (Homo sapiens, UniProt Q86Y07); assay: KinomeScan; type: binding; settings: read-out: % Control
T20 construct: purchased DiscoveRx
T20 sequence (Q86Y07 whole entry): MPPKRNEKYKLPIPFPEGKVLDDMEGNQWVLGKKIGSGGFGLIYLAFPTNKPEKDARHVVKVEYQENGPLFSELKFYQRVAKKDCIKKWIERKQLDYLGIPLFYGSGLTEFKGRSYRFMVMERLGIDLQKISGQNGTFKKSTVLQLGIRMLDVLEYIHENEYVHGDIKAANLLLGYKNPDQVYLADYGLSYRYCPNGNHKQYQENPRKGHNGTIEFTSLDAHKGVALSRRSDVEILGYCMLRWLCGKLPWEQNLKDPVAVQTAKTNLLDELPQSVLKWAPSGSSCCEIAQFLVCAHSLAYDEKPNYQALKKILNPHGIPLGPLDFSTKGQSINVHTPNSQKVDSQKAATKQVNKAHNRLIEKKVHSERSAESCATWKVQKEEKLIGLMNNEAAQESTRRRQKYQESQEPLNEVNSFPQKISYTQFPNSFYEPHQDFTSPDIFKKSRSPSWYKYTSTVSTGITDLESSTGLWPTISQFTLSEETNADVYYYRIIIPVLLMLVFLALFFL

CCK2 = target: T21, CCK2 (Homo sapiens, UniProt P32239); assay: GPCR Profiler; type: cell-based
T21 construct: host or cells: Chem-1 cells with promiscuous Gα15
T21 sequence (P32239 whole entry): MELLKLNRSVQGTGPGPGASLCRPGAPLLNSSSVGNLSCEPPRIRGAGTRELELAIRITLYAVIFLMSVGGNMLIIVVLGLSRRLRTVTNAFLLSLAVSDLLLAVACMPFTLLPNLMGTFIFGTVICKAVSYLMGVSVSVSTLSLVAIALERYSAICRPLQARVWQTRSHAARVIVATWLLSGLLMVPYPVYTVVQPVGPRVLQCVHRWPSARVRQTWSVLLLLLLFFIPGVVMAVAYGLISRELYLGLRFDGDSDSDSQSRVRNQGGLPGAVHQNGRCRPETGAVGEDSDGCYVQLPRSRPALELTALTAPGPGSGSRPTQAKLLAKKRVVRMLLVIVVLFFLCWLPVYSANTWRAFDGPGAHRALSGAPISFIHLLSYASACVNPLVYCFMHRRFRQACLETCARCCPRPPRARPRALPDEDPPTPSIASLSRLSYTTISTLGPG

CXCR6 = target: T22, CXCR6 (Homo sapiens, UniProt O00574); assay: GPCR Profiler; type: cell-based
T22 construct: host or cells: Chem-1 cells with Gα15
T22 sequence (O00574 whole entry, species assumed): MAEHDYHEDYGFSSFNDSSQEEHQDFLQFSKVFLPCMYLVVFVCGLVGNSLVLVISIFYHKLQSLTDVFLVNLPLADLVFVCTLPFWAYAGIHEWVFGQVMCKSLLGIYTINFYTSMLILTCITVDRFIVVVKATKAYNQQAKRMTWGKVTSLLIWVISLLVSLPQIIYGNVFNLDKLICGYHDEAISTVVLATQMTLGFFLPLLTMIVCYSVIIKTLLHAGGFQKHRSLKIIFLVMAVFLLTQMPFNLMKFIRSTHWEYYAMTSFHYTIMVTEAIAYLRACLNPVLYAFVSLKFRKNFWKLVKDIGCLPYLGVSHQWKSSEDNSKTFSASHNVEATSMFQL

DP = target: T23, DP (Homo sapiens, UniProt Q13258); assay: GPCR Profiler; type: cell-based
T23 construct: host or cells: Chem-1 cells expressing Gα15
T23 sequence (Q13258 whole entry): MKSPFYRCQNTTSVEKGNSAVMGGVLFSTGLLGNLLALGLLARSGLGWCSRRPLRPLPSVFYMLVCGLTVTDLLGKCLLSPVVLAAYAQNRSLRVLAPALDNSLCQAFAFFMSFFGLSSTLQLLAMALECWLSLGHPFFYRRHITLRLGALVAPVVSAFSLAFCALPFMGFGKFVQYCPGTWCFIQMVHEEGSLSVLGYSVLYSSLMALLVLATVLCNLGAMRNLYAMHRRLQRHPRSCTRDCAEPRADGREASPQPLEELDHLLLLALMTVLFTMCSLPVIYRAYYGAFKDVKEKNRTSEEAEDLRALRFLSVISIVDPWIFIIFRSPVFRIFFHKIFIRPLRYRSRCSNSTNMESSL

GPR14 = target: T24, GPR14 (Homo sapiens, UniProt Q9UKP6); assay: GPCR Profiler; type: cell-based; settings: 12.5 uM
T24 construct: host or cells: Chem-1 cells expressing Gα15

LPA5 = target: T25, LPA5 (Homo sapiens, UniProt Q9H1C0); assay: GPCR Profiler; type: cell-based
T25 construct: host or cells: Chem-1 cells with promiscuous Gα15
T25 sequence (Q9H1C0 whole entry, species assumed): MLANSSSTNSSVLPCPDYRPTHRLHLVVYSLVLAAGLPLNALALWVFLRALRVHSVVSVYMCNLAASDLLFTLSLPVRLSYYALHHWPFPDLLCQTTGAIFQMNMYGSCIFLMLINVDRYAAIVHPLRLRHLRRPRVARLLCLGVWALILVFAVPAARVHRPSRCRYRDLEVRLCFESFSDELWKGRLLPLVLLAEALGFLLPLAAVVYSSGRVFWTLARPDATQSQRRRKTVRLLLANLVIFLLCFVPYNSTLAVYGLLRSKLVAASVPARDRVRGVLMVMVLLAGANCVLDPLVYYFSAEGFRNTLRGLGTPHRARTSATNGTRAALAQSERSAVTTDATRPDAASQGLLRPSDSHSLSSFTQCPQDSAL

mGlu2 = target: T26, mGlu2 (Homo sapiens, UniProt Q14416); assay: GPCR Profiler; type: cell-based
T26 construct: host or cells: Chem-1 cells expressing Gα15
T26 sequence (Q14416 19-872): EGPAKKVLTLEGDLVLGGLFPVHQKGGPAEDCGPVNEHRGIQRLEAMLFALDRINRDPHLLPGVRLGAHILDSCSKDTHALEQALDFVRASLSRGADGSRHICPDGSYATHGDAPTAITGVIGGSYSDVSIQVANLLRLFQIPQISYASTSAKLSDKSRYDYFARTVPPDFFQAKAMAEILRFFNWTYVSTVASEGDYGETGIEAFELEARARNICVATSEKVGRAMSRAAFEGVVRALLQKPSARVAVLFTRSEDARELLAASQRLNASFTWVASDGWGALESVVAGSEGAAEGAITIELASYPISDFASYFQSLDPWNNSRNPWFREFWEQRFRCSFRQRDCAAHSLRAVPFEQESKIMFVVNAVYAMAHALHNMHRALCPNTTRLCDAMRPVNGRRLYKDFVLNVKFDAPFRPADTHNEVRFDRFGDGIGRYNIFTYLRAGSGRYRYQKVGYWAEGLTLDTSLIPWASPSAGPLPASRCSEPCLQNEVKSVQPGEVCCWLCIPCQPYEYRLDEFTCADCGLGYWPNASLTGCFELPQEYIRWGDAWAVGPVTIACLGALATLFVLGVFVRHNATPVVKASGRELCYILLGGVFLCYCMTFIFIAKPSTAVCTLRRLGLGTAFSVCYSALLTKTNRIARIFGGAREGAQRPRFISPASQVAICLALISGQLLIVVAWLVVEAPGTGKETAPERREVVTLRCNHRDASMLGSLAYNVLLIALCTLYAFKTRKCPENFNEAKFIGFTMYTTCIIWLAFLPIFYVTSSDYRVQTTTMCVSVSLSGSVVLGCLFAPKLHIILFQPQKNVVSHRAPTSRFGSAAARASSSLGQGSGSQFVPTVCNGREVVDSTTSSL

NOP = target: T27, NOP (Homo sapiens, UniProt P41146); assay: GPCR Profiler; type: cell-based
T27 construct: host or cells: Chem-1 cells expressing Gα15
T27 sequence (P41146 whole entry): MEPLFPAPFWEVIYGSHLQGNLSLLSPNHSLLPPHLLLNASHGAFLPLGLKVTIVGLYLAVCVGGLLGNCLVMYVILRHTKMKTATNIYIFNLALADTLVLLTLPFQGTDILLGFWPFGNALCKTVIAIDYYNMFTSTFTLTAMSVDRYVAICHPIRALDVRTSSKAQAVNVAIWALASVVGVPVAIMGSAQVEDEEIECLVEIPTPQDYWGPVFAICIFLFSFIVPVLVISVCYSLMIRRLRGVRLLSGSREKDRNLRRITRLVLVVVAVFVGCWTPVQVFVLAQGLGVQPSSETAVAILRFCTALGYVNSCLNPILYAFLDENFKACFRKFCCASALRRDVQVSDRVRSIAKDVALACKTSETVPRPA

OX1 = target: T28, OX1 (Homo sapiens, UniProt O43613); assay: GPCR Profiler; type: cell-based
T28 construct: host or cells: Chem-1 cells expressing Gα15
T28 sequence (O43613 whole entry): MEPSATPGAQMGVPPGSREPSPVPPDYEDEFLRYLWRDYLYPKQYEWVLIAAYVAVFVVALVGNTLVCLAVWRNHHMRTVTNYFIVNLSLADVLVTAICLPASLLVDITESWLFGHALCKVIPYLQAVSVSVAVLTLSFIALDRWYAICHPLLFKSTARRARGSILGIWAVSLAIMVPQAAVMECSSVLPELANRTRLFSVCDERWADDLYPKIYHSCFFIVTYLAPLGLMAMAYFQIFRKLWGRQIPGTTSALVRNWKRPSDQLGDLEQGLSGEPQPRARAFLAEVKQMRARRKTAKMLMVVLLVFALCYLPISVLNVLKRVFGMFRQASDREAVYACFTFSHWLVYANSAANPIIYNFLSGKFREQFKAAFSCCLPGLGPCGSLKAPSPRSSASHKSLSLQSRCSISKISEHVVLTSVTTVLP

V2 = target: T29, V2 (Homo sapiens, UniProt P30518); assay: GPCR Profiler; type: cell-based
T29 construct: host or cells: Chem-1 cells expressing Galpha15
T29 sequence (P30518 whole entry): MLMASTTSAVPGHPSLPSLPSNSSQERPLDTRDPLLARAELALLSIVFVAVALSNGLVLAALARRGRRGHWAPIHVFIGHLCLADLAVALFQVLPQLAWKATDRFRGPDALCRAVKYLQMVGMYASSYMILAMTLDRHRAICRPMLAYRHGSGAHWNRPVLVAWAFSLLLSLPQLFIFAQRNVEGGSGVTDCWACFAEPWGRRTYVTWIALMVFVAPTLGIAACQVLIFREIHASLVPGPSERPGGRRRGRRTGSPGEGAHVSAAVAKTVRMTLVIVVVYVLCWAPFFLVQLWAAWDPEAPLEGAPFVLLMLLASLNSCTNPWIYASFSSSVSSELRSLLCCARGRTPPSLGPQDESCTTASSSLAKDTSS

A2058 = assay: Scratch assay; type: cell-based, human; settings: 20 hours, OGM2 5 uM
endothelial cell (EC) = assay: Acidification-induced endothelial cell dysfunction; type: cell-based
Experimental: FIG. 34A through FIG. 34C: GPR68 plays a central role in acidification-induced endothelial cell (EC) dysfunction in vitro, and OGM2 abrogates EC dysfunction. […] These effects were abolished by OGM2 (OGM) at 3 uM and augmented by GPR68 positive allosteric modulator Ogerin (Og) at 2 uM. *P<0.05; Mann-Whitney test, n=5. FIG. 34C: Medium acidification reduced transendothelial resistance (TER), indicative of disruption of EC barrier function.

Question: Which results are given for `CCc1ccc2c(c1)C1(NN=C(c3cccc4ccccc34)S1)C(=O)N2` (stereo not shown) [OGM1, 5-ethyl-5′-naphthalen-1-ylspiro[1H-indole-3,2′-3H-1,3,4-thiadiazole]-2-one]?
Answer: remaining binding at 10 µM (AKT3): 100%; remaining binding at 10 µM (CDK3): 81%; remaining binding at 10 µM (CDK4-cyclinD1): 69%; remaining binding at 10 µM (EIF2AK1): 100%; remaining binding at 10 µM (FGFR4): 100%; remaining binding at 10 µM (INSRR): 100%; remaining binding at 10 µM (KIT(D816V)): 100%; remaining binding at 10 µM (LCK): 100%; remaining binding at 10 µM (LIMK1): 100%; remaining binding at 10 µM (MEK2): 94%; remaining binding at 10 µM (MYLK2): 100%; remaining binding at 10 µM (PCTK2): 100%; remaining binding at 10 µM (PDGFRB): 72%; remaining binding at 10 µM (PIK3CA(H1047L)): 100%; remaining binding at 10 µM (PIK3CA(H1047Y)): 59%; remaining binding at 10 µM (CDC2L5): 99%; remaining binding at 10 µM (PRP4): 100%; remaining binding at 10 µM (ROS1): 100%; remaining binding at 10 µM (SGK3): 56%; remaining binding at 10 µM (VRK2): 93%; Antagonism (CCK2; 10 uM): 14.9; Agonism (CCK2; 12.5 uM): −0.4; Antagonism (CXCR6; 10 uM): −14; Agonism (CXCR6; 12.5 uM): 0; Antagonism (DP; 10 uM): −11.7; Agonism (DP; 12.5 uM): 0.8; Agonism (GPR14): 16.8*; Antagonism (LPA5; 10 uM): −16.2; Agonism (LPA5; 12.5 uM): −0.1; Antagonism (mGlu2; 10 uM): −1.2; Agonism (mGlu2; 12.5 uM): −0.4; Antagonism (NOP; 10 uM): −1.9; Agonism (NOP; 12.5 uM): 0.2; Antagonism (OX1; 10 uM): 1.6; Agonism (OX1; 12.5 uM): 1.4; Antagonism (V2; 10 uM): 2.9; Agonism (V2; 12.5 uM): 0.6

Question: Which results are given for `CCc1ccc2c(c1)C1(NN=C(c3ccccc3)S1)C(=O)N2` (stereo not shown) [OGM2]?
Answer: migration (A2058): inhibited migration; TER decline caused by low pH (6.5) (endothelial cell (EC); GPR4i 5 uM): abolished TER decline; acidic media (pH 6.5)-induced TNFα, VCAM1 and ICAM1 expression (endothelial cell (EC); OGM2 3 uM, Ogerin 2 uM): abolished
